# According to patent publication US12077503B2, “Substituted cyclic amides and their use as herbicides” (FMC CORPORATION, priority 2015, dated 2024):
# How the values were obtained:
# Type in all cases: in vivo
# [1] = test system: barnyardgrass (Echinochloa crus-galli); assay: Test A postemergence; settings: for Barnyardgrass plant response rating: 125 g ai/ha, postemergence, visual injury rating on 0 to 100 scale (0 no effect, 100 complete control), approx. 10 d; for Plant response rating, Barnyardgrass: Postemergence, 500 g ai/ha, 0 to 100 scale where 0 is no effect and 100 is complete control
# In short: (§1)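 Seeds sprayed preemergence with a directed soil spray, or plants at 2 to 10 cm height and one- to two-leaf stage sprayed postemergence, with test chemicals in a non-phytotoxic solvent mixture containing surfactant, in loam soil–sand blend. Injury rated visually against untreated controls after about 10 d in greenhouse, 0 (no effect) to 100 (complete control).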
# Kochia (Kochia scoparia) [2] = assay: Test A postemergence; settings: for Kochia plant response rating: 125 g ai/ha, postemergence, visual injury rating on 0 to 100 scale (0 no effect, 100 complete control), approx. 10 d; for Plant response rating, Kochia: Postemergence, 500 g ai/ha, 0 to 100 scale where 0 is no effect and 100 is complete control
# In short: as §1
# [3] = test system: pigweed (Amaranthus retroflexus); assay: Test A postemergence; settings: for Pigweed plant response rating: 125 g ai/ha, postemergence, visual injury rating on 0 to 100 scale (0 no effect, 100 complete control), approx. 10 d; for Plant response rating, Pigweed: Postemergence, 500 g ai/ha, 0 to 100 scale where 0 is no effect and 100 is complete control
# In short: as §1
# corn (Zea mays) = assay: Test A postemergence; settings: for Corn plant response rating: 125 g ai/ha, postemergence, visual injury rating on 0 to 100 scale (0 no effect, 100 complete control), approx. 10 d; for Plant response rating, Corn: Postemergence, 500 g ai/ha, 0 to 100 scale where 0 is no effect and 100 is complete control
# In short: as §1
# [4] = test system: ragweed (common ragweed, Ambrosia elatior); assay: Test A postemergence; settings: for Ragweed plant response rating: 125 g ai/ha, postemergence, visual injury rating on 0 to 100 scale (0 no effect, 100 complete control), approx. 10 d; for Plant response rating, Ragweed: Postemergence, 500 g ai/ha, 0 to 100 scale where 0 is no effect and 100 is complete control
# In short: as §1
# [5] = test system: ryegrass, Italian (Italian ryegrass, Lolium multiflorum); assay: Test A postemergence; settings: for Ryegrass, Italian plant response rating: 125 g ai/ha, postemergence, visual injury rating on 0 to 100 scale (0 no effect, 100 complete control), approx. 10 d; for Plant response rating, Ryegrass, Italian: Postemergence, 500 g ai/ha, 0 to 100 scale where 0 is no effect and 100 is complete control
# In short: as §1
# [6] = test system: Galium (catchweed bedstraw, Galium aparine); assay: Test A postemergence; settings: for Galium plant response rating: 125 g ai/ha, postemergence, visual injury rating on 0 to 100 scale (0 no effect, 100 complete control), approx. 10 d; for Plant response rating, Galium: Postemergence, 500 g ai/ha, 0 to 100 scale where 0 is no effect and 100 is complete control
# In short: as §1
# [7] = test system: wheat (Triticum aestivum); assay: Test A postemergence; settings: for Wheat plant response rating: 125 g ai/ha, postemergence, visual injury rating on 0 to 100 scale (0 no effect, 100 complete control), approx. 10 d; for Plant response rating, Wheat: Postemergence, 500 g ai/ha, 0 to 100 scale where 0 is no effect and 100 is complete control
# In short: as §1
# [8] = test system: giant foxtail (Setaria faberii); assay: Test A postemergence; settings: for Foxtail, Giant plant response rating: 125 g ai/ha, postemergence, visual injury rating on 0 to 100 scale (0 no effect, 100 complete control), approx. 10 d; for Plant response rating, Foxtail, Giant: Postemergence, 500 g ai/ha, 0 to 100 scale where 0 is no effect and 100 is complete control
# In short: as §1
# [9] = test system: blackgrass (Alopecurus myosuroides); assay: Test A postemergence; settings: for Blackgrass plant response rating: 125 g ai/ha, postemergence, visual injury rating on 0 to 100 scale (0 no effect, 100 complete control), approx. 10 d; for Plant response rating, Blackgrass: Postemergence, 500 g ai/ha, 0 to 100 scale where 0 is no effect and 100 is complete control
# In short: as §1
# [10] = test system: barnyardgrass (Echinochloa crus-galli); assay: Test B flooded paddy test; settings: Flood, 250 g ai/ha; 0 to 100 scale where 0 is no effect and 100 is complete control; 13 to 15 d
# In short: (§2)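 2-leaf plants; pots flooded 3 cm over soil; cpd added to paddy water; depth held; greenhouse 13–15 d; visual rating vs controls, 0 = no effect, 100 = complete control.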
# rice (Oryra sativa) = assay: Test B flooded paddy test; settings: Flood, 250 g ai/ha; 0 to 100 scale where 0 is no effect and 100 is complete control; 13 to 15 d
# In short: as §2
# [11] = test system: ducksalad (Heteranthera limosa); assay: Test B flooded paddy test; settings: Flood, 250 g ai/ha; 0 to 100 scale where 0 is no effect and 100 is complete control; 13 to 15 d
# In short: as §2
# [12] = test system: sedge, umbrella (small-flower umbrella sedge, Cyperus difformis); assay: Test B flooded paddy test; settings: Flood, 250 g ai/ha; 0 to 100 scale where 0 is no effect and 100 is complete control; 13 to 15 d
# In short: as §2
# [13] = test system: barnyardgrass (Echinochloa crus-galli); assay: Test A preemergence; settings: Preemergence; for Plant response rating, Barnyardgrass: 125 g ai/ha, visual injury after approximately 10 d, 0 to 100 scale where 0 is no effect and 100 is complete control; for Barnyardgrass plant response rating (0 to 100 scale, 0 is no effect, 100 is complete control): 500 g ai/ha, visual injury approx. 10 d
# In short: as §1
# Kochia (Kochia scoparia) [14] = assay: Test A preemergence; settings: Preemergence; for Plant response rating, Kochia: 125 g ai/ha, visual injury after approximately 10 d, 0 to 100 scale where 0 is no effect and 100 is complete control; for Kochia plant response rating (0 to 100 scale, 0 is no effect, 100 is complete control): 500 g ai/ha, visual injury approx. 10 d
# In short: as §1
# [15] = test system: pigweed (Amaranthus retroflexus); assay: Test A preemergence; settings: Preemergence; for Plant response rating, Pigweed: 125 g ai/ha, visual injury after approximately 10 d, 0 to 100 scale where 0 is no effect and 100 is complete control; for Pigweed plant response rating (0 to 100 scale, 0 is no effect, 100 is complete control): 500 g ai/ha, visual injury approx. 10 d
# [16] = test system: ragweed (common ragweed, Ambrosia elatior); assay: Test A preemergence; settings: Preemergence; for Plant response rating, Ragweed: 125 g ai/ha, visual injury after approximately 10 d, 0 to 100 scale where 0 is no effect and 100 is complete control; for Ragweed plant response rating (0 to 100 scale, 0 is no effect, 100 is complete control): 500 g ai/ha, visual injury approx. 10 d
# In short: as §1
# [17] = test system: ryegrass, Italian (Italian ryegrass, Lolium multiflorum); assay: Test A preemergence; settings: Preemergence; for Plant response rating, Ryegrass, Italian: 125 g ai/ha, visual injury after approximately 10 d, 0 to 100 scale where 0 is no effect and 100 is complete control; for Ryegrass, Italian plant response rating (0 to 100 scale, 0 is no effect, 100 is complete control): 500 g ai/ha, visual injury approx. 10 d
# In short: as §1
# [18] = test system: giant foxtail (Setaria faberii); assay: Test A preemergence; settings: Preemergence; for Plant response rating, Foxtail, Giant: 125 g ai/ha, visual injury after approximately 10 d, 0 to 100 scale where 0 is no effect and 100 is complete control; for Foxtail, Giant plant response rating (0 to 100 scale, 0 is no effect, 100 is complete control): 500 g ai/ha, visual injury approx. 10 d
# In short: as §1
SMILES,Barnyardgrass plant response rating [1],"Plant response rating, Barnyardgrass [1]",Kochia plant response rating (Kochia (Kochia scoparia) [2]),"Plant response rating, Kochia (Kochia (Kochia scoparia) [2])",Pigweed plant response rating [3],"Plant response rating, Pigweed [3]",Corn plant response rating (corn (Zea mays)),"Plant response rating, Corn (corn (Zea mays))",Ragweed plant response rating [4],"Plant response rating, Ragweed [4]","Ryegrass, Italian plant response rating [5]","Plant response rating, Ryegrass, Italian [5]",Galium plant response rating [6],"Plant response rating, Galium [6]",Wheat plant response rating [7],"Plant response rating, Wheat [7]","Foxtail, Giant plant response rating [8]","Plant response rating, Foxtail, Giant [8]",Blackgrass plant response rating [9],"Plant response rating, Blackgrass [9]",other results
O=C1NCC(c2cc(F)cc(C(F)(F)F)c2)C1C(=O)Nc1ccccc1F (stereo not drawn) [Compound 489],90,90,0,40,0,20,70,80,0,30,30,50,0,40,30,70,90,90,50,70,"Plant response rating, Barnyardgrass [10]: 65; Plant response rating, Rice (rice (Oryra sativa)): 20; Plant response rating, Ducksalad [11]: 100; Plant response rating, Sedge, Umbrella [12]: 0; Plant response rating, Barnyardgrass [13]: 90; Barnyardgrass plant response rating (0 to 100 scale, 0 is no effect, 100 is complete control) [13]: 90; Plant response rating, Kochia (Kochia (Kochia scoparia) [14]): 20; Kochia plant response rating (0 to 100 scale, 0 is no effect, 100 is complete control) (Kochia (Kochia scoparia) [14]): 50; Plant response rating, Pigweed [15]: 0; Pigweed plant response rating (0 to 100 scale, 0 is no effect, 100 is complete control) [15]: 40; Plant response rating, Ragweed [16]: 30; Ragweed plant response rating (0 to 100 scale, 0 is no effect, 100 is complete control) [16]: 30; Plant response rating, Ryegrass, Italian [17]: 30; Ryegrass, Italian plant response rating (0 to 100 scale, 0 is no effect, 100 is complete control) [17]: 20; Plant response rating, Foxtail, Giant [18]: 90; Foxtail, Giant plant response rating (0 to 100 scale, 0 is no effect, 100 is complete control) [18]: 90"
O=C1NCC(c2cc(F)cc(C(F)(F)F)c2)C1C(=O)Nc1ccc(F)cc1F (stereo not drawn) [Compound 490],80,80,0,20,0,20,80,80,0,20,0,30,20,40,30,50,80,80,20,40,"Plant response rating, Barnyardgrass [10]: 50; Plant response rating, Rice (rice (Oryra sativa)): 30; Plant response rating, Ducksalad [11]: 85; Plant response rating, Sedge, Umbrella [12]: 0; Plant response rating, Barnyardgrass [13]: 80; Barnyardgrass plant response rating (0 to 100 scale, 0 is no effect, 100 is complete control) [13]: 90; Plant response rating, Kochia (Kochia (Kochia scoparia) [14]): 0; Kochia plant response rating (0 to 100 scale, 0 is no effect, 100 is complete control) (Kochia (Kochia scoparia) [14]): 20; Plant response rating, Pigweed [15]: 0; Pigweed plant response rating (0 to 100 scale, 0 is no effect, 100 is complete control) [15]: 0; Plant response rating, Ragweed [16]: 0; Ragweed plant response rating (0 to 100 scale, 0 is no effect, 100 is complete control) [16]: 0; Plant response rating, Ryegrass, Italian [17]: 20; Ryegrass, Italian plant response rating (0 to 100 scale, 0 is no effect, 100 is complete control) [17]: 50; Plant response rating, Foxtail, Giant [18]: 90; Foxtail, Giant plant response rating (0 to 100 scale, 0 is no effect, 100 is complete control) [18]: 90"
O=C1NCC(c2cc(F)cc(Cl)c2)C1C(=O)Nc1ccccc1F (stereo not drawn) [Compound 491],90,80,0,20,0,20,60,90,0,20,0,30,0,30,30,60,80,80,20,50,"Plant response rating, Barnyardgrass [10]: 0; Plant response rating, Rice (rice (Oryra sativa)): 0; Plant response rating, Ducksalad [11]: 40; Plant response rating, Sedge, Umbrella [12]: 0; Plant response rating, Barnyardgrass [13]: 90; Barnyardgrass plant response rating (0 to 100 scale, 0 is no effect, 100 is complete control) [13]: 90; Plant response rating, Kochia (Kochia (Kochia scoparia) [14]): 0; Kochia plant response rating (0 to 100 scale, 0 is no effect, 100 is complete control) (Kochia (Kochia scoparia) [14]): 20; Plant response rating, Pigweed [15]: 0; Pigweed plant response rating (0 to 100 scale, 0 is no effect, 100 is complete control) [15]: 0; Plant response rating, Ragweed [16]: 0; Ragweed plant response rating (0 to 100 scale, 0 is no effect, 100 is complete control) [16]: 0; Plant response rating, Ryegrass, Italian [17]: 20; Ryegrass, Italian plant response rating (0 to 100 scale, 0 is no effect, 100 is complete control) [17]: 30; Plant response rating, Foxtail, Giant [18]: 90; Foxtail, Giant plant response rating (0 to 100 scale, 0 is no effect, 100 is complete control) [18]: 90"
